Test system: BDF1 mice, Adenocarcinoma 755 s.c., tumor weight T/C
Assay: NCI In Vivo Anticancer Drug Screen. Data for tumor model Adenocarcinoma 755 (subcutaneous) in B6D2F1 (BDF1) mice
Conditions: endpoint: mean tumor weight, higher = larger tumour
Procedure, shortened: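 Values express treated (T) relative to vehicle-dosed control (C) animals, based on survival or tumour size measured after compound treatment of mice bearing a transplanted tumour.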

CC(=O)Nc1c(Cl)c(Cl)c2c(c1Cl)Cc1cc(F)ccc1-2
T/C (dose: 125.0 mg/kg/injection, schedule: Q01DX011 (ip), vehicle: carboxymethylcellulose (CMC)): 91 % of control
T/C (dose: 125.0 mg/kg/injection, schedule: Q01DX011 (ip), vehicle: saline): 29 % of control
T/C (dose: 250.0 mg/kg/injection, schedule: Q01DX011 (ip), vehicle: carboxymethylcellulose (CMC)): 41 % of control
T/C (dose: 250.0 mg/kg/injection, schedule: Q01DX011 (ip), vehicle: saline): 29 % of control
T/C (dose: 500.0 mg/kg/injection, schedule: Q01DX011 (ip), vehicle: carboxymethylcellulose (CMC)): 42 % of control
T/C (dose: 500.0 mg/kg/injection, schedule: Q01DX011 (ip), vehicle: saline): 17 % of control
T/C (dose: 1000.0 mg/kg/injection, schedule: Q01DX011 (ip), vehicle: carboxymethylcellulose (CMC)): 25 % of control
T/C (dose: 1000.0 mg/kg/injection, schedule: Q01DX011 (ip), vehicle: saline): 14 % of control

Cn1c(N)nc2nc[nH]c2c1=S
T/C (dose: 4.0 mg/kg/injection, schedule: Q01DX011 (oral), vehicle: carboxymethylcellulose (CMC)): 114 % of control
T/C (dose: 4.0 mg/kg/injection, schedule: Q01DX011 (oral), vehicle: saline): 91 % of control
T/C (dose: 5.0 mg/kg/injection, schedule: Q01DX011 (ip), vehicle: methylcellulose (MC)): 4 % of control
T/C (dose: 6.0 mg/kg/injection, schedule: Q01DX011 (ip), vehicle: methylcellulose (MC)): 5 % of control
T/C (dose: 7.0 mg/kg/injection, schedule: Q01DX011 (ip), vehicle: methylcellulose (MC)): 4 % of control
T/C (dose: 8.0 mg/kg/injection, schedule: Q01DX011 (oral), vehicle: carboxymethylcellulose (CMC)): 112 % of control
T/C (dose: 8.0 mg/kg/injection, schedule: Q01DX011 (oral), vehicle: saline): 92 % of control
T/C (dose: 16.0 mg/kg/injection, schedule: Q01DX011 (oral), vehicle: carboxymethylcellulose (CMC)): 119 % of control
T/C (dose: 16.0 mg/kg/injection, schedule: Q01DX011 (oral), vehicle: saline): 80 % of control
T/C (dose: 32.0 mg/kg/injection, schedule: Q01DX011 (oral), vehicle: carboxymethylcellulose (CMC)): 203 % of control
T/C (dose: 32.0 mg/kg/injection, schedule: Q01DX011 (oral), vehicle: saline): 86 % of control
T/C (dose: 64.0 mg/kg/injection, schedule: Q01DX011 (oral), vehicle: carboxymethylcellulose (CMC)): 151 % of control
T/C (dose: 64.0 mg/kg/injection, schedule: Q01DX011 (oral), vehicle: saline): 120 % of control
T/C (dose: 500.0 mg/kg/injection, schedule: Q01DX011 (oral), vehicle: carboxymethylcellulose (CMC)): 85 % of control
T/C (dose: 750.0 mg/kg/injection, schedule: Q01DX011 (oral), vehicle: carboxymethylcellulose (CMC)): 90 % of control
T/C (dose: 310.0 micrograms/kg/injection, schedule: Q01DX011 (ip), vehicle: methylcellulose (MC)): 32 % of control
T/C (dose: 625.0 micrograms/kg/injection, schedule: Q01DX011 (ip), vehicle: methylcellulose (MC)): 64 % of control
T/C (dose: 1000.0 micrograms/kg/injection, schedule: Q01DX011 (ip), vehicle: methylcellulose (MC)): 3 % of control
T/C (dose: 1250.0 micrograms/kg/injection, schedule: Q01DX011 (ip), vehicle: methylcellulose (MC)): 18 % of control
T/C (dose: 2000.0 micrograms/kg/injection, schedule: Q01DX011 (ip), vehicle: methylcellulose (MC)): 3 % of control
T/C (dose: 2500.0 micrograms/kg/injection, schedule: Q01DX011 (ip), vehicle: methylcellulose (MC)): 4 % of control
T/C (dose: 5000.0 micrograms/kg/injection, schedule: Q01DX011 (ip), vehicle: methylcellulose (MC)): 4 % of control
T/C (dose: 7500.0 micrograms/kg/injection, schedule: Q01DX011 (ip), vehicle: methylcellulose (MC)): 2 % of control

Cc1ccc(N(O)C(=O)Nc2ccccc2)cc1
T/C (dose: 100.0 mg/kg/injection, schedule: Q01DX011 (ip), vehicle: methylcellulose (MC)): 95 % of control
T/C (dose: 200.0 mg/kg/injection, schedule: Q01DX011 (ip), vehicle: methylcellulose (MC)): 80 % of control

O=C1OC(c2cc(I)c(O)c(I)c2)(c2cc(I)c(O)c(I)c2)c2ccccc21
T/C (dose: 0.38 mg/kg/injection, schedule: Q01DX011 (ip), vehicle: carboxymethylcellulose (CMC)): 107 % of control
T/C (dose: 0.76 mg/kg/injection, schedule: Q01DX011 (ip), vehicle: carboxymethylcellulose (CMC)): 68 % of control
T/C (dose: 1.56 mg/kg/injection, schedule: Q01DX011 (ip), vehicle: carboxymethylcellulose (CMC)): 68 % of control

Nc1nc(N)c(N)c(Nc2ccc(Br)cc2)n1
T/C (dose: 15.0 mg/kg/injection, schedule: Q01DX011 (ip), vehicle: saline): 91 % of control
T/C (dose: 31.0 mg/kg/injection, schedule: Q01DX011 (ip), vehicle: saline): 32 % of control
